Test results taken from patent publication US4965280A, “Antifungal carbinols” (E. I. Du Pont de Nemours and Company, priority 1989, dated 1990).

Experiments:
Assay in all cases: Test D
WILLMS SOYBEANS = format: in vivo, Glycine max
GREEN FOXTAIL = format: in vivo, Setaria viridis
FALL PANICUM = format: in vivo, Panicum dichotomiflorum
COCKLEBUR = format: in vivo, Xanthium pensylvanicum
LADY SMARTWEED = format: in vivo, Polygonum persicaris
Protocol: The Corn and Sorghum Herbicide Test included the following species in both the preemergence and postemergence evaluations:
Postemergence plantings were grown in Sassafras sandy loam soil. Corn and soybeans were grown in separate 25 cm diameter containers. Sorghum and the seven grass weed species were grown in two 18 cm diameter containers, 4 species per container. The seven broadleaf weed species were also grown in two 18 cm diameter containers, 4 species in one container, 3 species in the second container. One additional planting of corn in an 18 cm diameter container was made. The soil surface of this additional container of corn was covered with the absorbent, perlite, before spray treatment so that test chemicals would enter the plant only via the foliage. The plants were grown 10-21 days, dependent upon the species and then sprayed postemergence with the test chemicals dissolved in a nonpytotoxic solvent.
Preemergence plantings were grown in fertilized Tama silt loam soil. These plantings are identical to those described in the postemergence section, with the exception of the corn planting having perlite covering the soil surface. These plantings were made the day of or the day before spraying the test chemicals dissolved in a nonphytotoxic solvent.
Treated plants and controls were maintained in the greenhouse for 2 to 4 weeks. Visual planting response ratings were made on a percentage scale of 0 to 100 in comparison with a control where 0=no injury, and 100=death.

LAMBSQUARTER = format: in vivo, Chenopodium album

Row | SMILES | plant response (WILLMS SOYBEANS; POSTEMERGENCE 0250 GM/HA) [%] | plant response (WILLMS SOYBEANS; POSTEMERGENCE 0500 GM/HA) [%] | plant response (WILLMS SOYBEANS; PREEMERGENCE 0250 GM/HA) [%] | plant response (WILLMS SOYBEANS; PREEMERGENCE 0500 GM/HA) [%] | plant response (GREEN FOXTAIL; POSTEMERGENCE 0250 GM/HA) [%] | plant response (GREEN FOXTAIL; POSTEMERGENCE 0500 GM/HA) [%] | plant response (GREEN FOXTAIL; PREEMERGENCE 0250 GM/HA) [%] | plant response (GREEN FOXTAIL; PREEMERGENCE 0500 GM/HA) [%] | plant response (FALL PANICUM; PREEMERGENCE 0250 GM/HA) [%] | plant response (FALL PANICUM; PREEMERGENCE 0500 GM/HA) [%] | plant response (COCKLEBUR; POSTEMERGENCE 0250 GM/HA) [%] | plant response (COCKLEBUR; POSTEMERGENCE 0500 GM/HA) [%] | plant response (COCKLEBUR; PREEMERGENCE 0250 GM/HA) [%] | plant response (COCKLEBUR; PREEMERGENCE 0500 GM/HA) [%] | plant response (LADY SMARTWEED; POSTEMERGENCE 0250 GM/HA) [%] | plant response (LADY SMARTWEED; POSTEMERGENCE 0500 GM/HA) [%] | plant response (LADY SMARTWEED; PREEMERGENCE 0250 GM/HA) [%] | plant response (LADY SMARTWEED; PREEMERGENCE 0500 GM/HA) [%] | plant response (LAMBSQUARTER; POSTEMERGENCE 0250 GM/HA) [%] | plant response (LAMBSQUARTER; POSTEMERGENCE 0500 GM/HA) [%] | also measured
1 | C=C(c1ccccc1Cl)C(O)(Cn1cncn1)c1ccc(Cl)cc1Cl (stereo not shown) [Example 33, 2-(2,4-Dichlorophenyl)-3-(2-chlorophenyl)-1-(1H-1,2,4-triazol-1-yl)-3-buten-2-ol] | 0 | 0 | 0 | 0 | 0 | 0 | 0 | 0 | 0 | 0 | 0 | 0 | 0 | 0 | 0 | 0 | 0 | 0 | 0 | 0 | plant response (WILLMS SOYBEANS; POSTEMERGENCE 1000 GM/HA): 0%; plant response (WILLMS SOYBEANS; PREEMERGENCE 1000 GM/HA): 0%; plant response (GREEN FOXTAIL; POSTEMERGENCE 1000 GM/HA): 0%; plant response (GREEN FOXTAIL; PREEMERGENCE 1000 GM/HA): 0%; plant response (FALL PANICUM; POSTEMERGENCE 0250 GM/HA): 0%; plant response (FALL PANICUM; POSTEMERGENCE 0500 GM/HA): 0%; plant response (FALL PANICUM; POSTEMERGENCE 1000 GM/HA): 0%; plant response (FALL PANICUM; PREEMERGENCE 1000 GM/HA): 0%; plant response (COCKLEBUR; POSTEMERGENCE 1000 GM/HA): 0%; plant response (COCKLEBUR; PREEMERGENCE 1000 GM/HA): 0%; plant response (LADY SMARTWEED; POSTEMERGENCE 1000 GM/HA): 0%; plant response (LADY SMARTWEED; PREEMERGENCE 1000 GM/HA): 0%; plant response (LAMBSQUARTER; POSTEMERGENCE 1000 GM/HA): 0%; plant response (LAMBSQUARTER; PREEMERGENCE 0250 GM/HA): 0%; plant response (LAMBSQUARTER; PREEMERGENCE 0500 GM/HA): 0%; plant response (LAMBSQUARTER; PREEMERGENCE 1000 GM/HA): 0%
2 | C=C(c1ccccc1Cl)C(O)(Cn1cncn1)c1ccc(F)cc1F (stereo not shown) [Example 35] | 10 | 30 | 0 | 0 | 0 | 40 | 80 | 100 | 80 | 100 | 0 | 30 | 0 | 20 | 50 | 50 | 50 | 100 | 0 | 20 | plant response (WILLMS SOYBEANS; PREEMERGENCE 0064 GM/HA): 0%; plant response (WILLMS SOYBEANS; PREEMERGENCE 0125 GM/HA): 0%; plant response (GREEN FOXTAIL; PREEMERGENCE 0064 GM/HA): 30%; plant response (GREEN FOXTAIL; PREEMERGENCE 0125 GM/HA): 70%; plant response (FALL PANICUM; PREEMERGENCE 0064 GM/HA): 0%; plant response (FALL PANICUM; PREEMERGENCE 0125 GM/HA): 50%; plant response (COCKLEBUR; PREEMERGENCE 0064 GM/HA): 0%; plant response (COCKLEBUR; PREEMERGENCE 0125 GM/HA): 0%; plant response (LADY SMARTWEED; PREEMERGENCE 0064 GM/HA): 0%; plant response (LADY SMARTWEED; PREEMERGENCE 0125 GM/HA): 30%; plant response (LAMBSQUARTER; PREEMERGENCE 0064 GM/HA): 30%; plant response (LAMBSQUARTER; PREEMERGENCE 0125 GM/HA): 30%; plant response (LAMBSQUARTER; PREEMERGENCE 0250 GM/HA): 60%; plant response (LAMBSQUARTER; PREEMERGENCE 0500 GM/HA): 80%
3 | C=C(c1ccccc1)C(O)(Cn1cncn1)c1ccc(Cl)cc1Cl (stereo not shown) [Example 50, 2-(2,4-Dichlorophenyl)-3-phenyl-1-(1H-1,2,4-triazol-1-yl)-3-buten-2-ol] | 35 | 65 | 0 | 20 | 0 | 0 | 50 | 85 | 60 | 95 | 25 | 40 | 0 | 25 | 30 | 40 | 20 | 40 | 65 | 80 | plant response (WILLMS SOYBEANS; PREEMERGENCE 0064 GM/HA): 0%; plant response (WILLMS SOYBEANS; PREEMERGENCE 0125 GM/HA): 0%; plant response (GREEN FOXTAIL; PREEMERGENCE 0064 GM/HA): 0%; plant response (GREEN FOXTAIL; PREEMERGENCE 0125 GM/HA): 30%; plant response (FALL PANICUM; POSTEMERGENCE 0250 GM/HA): 20%; plant response (FALL PANICUM; POSTEMERGENCE 0500 GM/HA): 35%; plant response (FALL PANICUM; PREEMERGENCE 0064 GM/HA): 20%; plant response (FALL PANICUM; PREEMERGENCE 0125 GM/HA): 35%; plant response (COCKLEBUR; PREEMERGENCE 0064 GM/HA): 0%; plant response (COCKLEBUR; PREEMERGENCE 0125 GM/HA): 0%; plant response (LADY SMARTWEED; PREEMERGENCE 0064 GM/HA): 0%; plant response (LADY SMARTWEED; PREEMERGENCE 0125 GM/HA): 0%; plant response (LAMBSQUARTER; PREEMERGENCE 0064 GM/HA): 0%; plant response (LAMBSQUARTER; PREEMERGENCE 0125 GM/HA): 35%; plant response (LAMBSQUARTER; PREEMERGENCE 0250 GM/HA): 75%; plant response (LAMBSQUARTER; PREEMERGENCE 0500 GM/HA): 90%
